The supplement of paper PMC10307832

Columns and labels:
Assay in all cases: relative viability (nuclei count vs DMSO), 5 days (fraction); higher = more cells survive
[1] = compound: CC1=C(C(=NN1)C)CC2=C(C3=C(S2)N(C(=O)N(C3=O)C)CC(C)C)C(=O)N4C[C@@H](CO4)O + Nc1ncn([C@H]2C[C@H](O)[C@@H](CO)O2)c(=O)n1 [Decitabine] (partner 2 µM)
In short: (§1)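 Lung cancer cell lines in 1536-well plates were dosed by pin tool the day after seeding, either with one drug alone or with a fixed anchor-drug dose plus five library-drug doses (not always all listed) in √10 steps. After 5 days, cells were fixed and their nuclei stained in one step (final 0.05% Triton X-100, 1% formaldehyde, 1 ug/ml Hoechst), then counted on 4× images. Relative viability is the nuclei count in treated wells divided by that in vehicle wells. Values are medians of duplicate plates.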

[2] = compound: CC1=C(C(=NN1)C)CC2=C(C3=C(S2)N(C(=O)N(C3=O)C)CC(C)C)C(=O)N4C[C@@H](CO4)O + C[C@@H](Oc1cc(-c2cnn(C3CCNCC3)c2)cnc1N)c1c(Cl)ccc(F)c1Cl [Crizotinib] (partner 1 µM)
In short: as §1

[3] = compound: CC1=C(C(=NN1)C)CC2=C(C3=C(S2)N(C(=O)N(C3=O)C)CC(C)C)C(=O)N4C[C@@H](CO4)O + COc1cccc2cc(-c3nc([C@H]4CC[C@H](C(=O)O)CC4)n4ncnc(N)c34)[nH]c12 [OSI-027] (partner 0.5 µM)
In short: as §1

IDH-C35 + OSI-027 = compound: Cc1ccccc1C(C(=O)NC1CCCCC1)N(C(=O)Cn1ccnc1C)c1cccc(F)c1 [IDH-C35] + COc1cccc2cc(-c3nc([C@H]4CC[C@H](C(=O)O)CC4)n4ncnc(N)c34)[nH]c12 [OSI-027] (partner 0.5 µM)
In short: as §1

Row | Cell Line | relative viability ([1]; first compound 0.0025 µM) | relative viability ([1]; first compound 0.007906 µM) | relative viability ([1]; first compound 0.025 µM) | relative viability ([1]; first compound 0.07906 µM) | relative viability ([1]; first compound 0.25 µM) | relative viability ([2]; first compound 0.0025 µM) | relative viability ([2]; first compound 0.007906 µM) | relative viability ([2]; first compound 0.025 µM) | relative viability ([2]; first compound 0.07906 µM) | relative viability ([2]; first compound 0.25 µM) | relative viability ([3]; first compound 0.0025 µM) | relative viability ([3]; first compound 0.007906 µM) | relative viability ([3]; first compound 0.025 µM) | relative viability ([3]; first compound 0.07906 µM) | relative viability ([3]; first compound 0.25 µM) | relative viability (IDH-C35 + OSI-027; first compound 0.08 µM) | relative viability (IDH-C35 + OSI-027; first compound 0.253 µM) | relative viability (IDH-C35 + OSI-027; first compound 0.8 µM) | relative viability (IDH-C35 + OSI-027; first compound 2.53 µM) | relative viability (IDH-C35 + OSI-027; first compound 8 µM)
1 | HCC-827 | 0.216 | 0.34 | 0.323 | 0.408 | 0.302 | 0.96 | 0.965 | 0.924 | 0.929 | 1 | 0.812 | 0.793 | 0.756 | 0.759 | 0.952 | 0.78 | 0.662 | 0.694 | 0.71 | 0.771
2 | LK-2 | 0.261 | 0.397 | 0.268 | 0.237 | 0.273 | 0.234 | 0.206 | 0.218 | 0.276 | 0.204 | 0.201 | 0.184 | 0.204 | 0.189 | 0.228 | 0.213 | 0.226 | 0.188 | 0.24 | 0.236
3 | HCC-366 | 0.297 | 0.417 | 0.399 | 0.365 | 0.372 | 0.661 | 1.13 | 0.622 | 0.641 | 0.825 | 0.937 | 1.16 | 1.18 | 1.09 | 0.933 | 0.968 | 0.955 | 0.806 | – | 0.785
4 | BEN | 0.626 | 0.708 | 0.613 | 0.622 | 0.614 | 0.912 | 0.719 | 0.75 | 0.604 | 0.847 | 0.31 | 0.293 | 0.357 | 0.317 | 0.292 | 0.308 | 0.318 | 0.298 | 0.328 | 0.261
5 | NCI-H23 | 0.307 | 0.329 | 0.289 | 0.345 | 0.334 | 0.519 | 0.613 | 0.499 | 0.568 | 0.604 | 0.814 | 0.557 | 0.701 | 0.475 | 0.602 | 0.582 | 0.635 | 0.558 | 0.392 | 0.453
6 | 201T | 0.87 | 0.866 | 0.795 | 0.865 | 0.82 | 1.06 | 0.978 | 1.03 | 1.06 | 1.05 | 0.843 | 0.79 | 0.72 | 0.642 | 0.71 | 0.845 | 0.75 | 0.681 | 0.802 | 0.777
7 | NCI-H2170 | 0.495 | 0.514 | 0.462 | 0.441 | 0.481 | 1.19 | 1.37 | 1.24 | 1.13 | 1.26 | 0.736 | 0.792 | 0.687 | 0.726 | 0.681 | 0.669 | 0.661 | 0.739 | 0.71 | 0.676
8 | NCI-H460 | 0.512 | 0.604 | 0.502 | 0.494 | 0.557 | 0.865 | 1.1 | 0.848 | 1.12 | 0.948 | 0.718 | 0.821 | 0.683 | 0.648 | 0.779 | 0.659 | 0.757 | 0.681 | 0.644 | 0.602
9 | NCI-H661 | 0.521 | 0.623 | 0.546 | 0.542 | 0.58 | – | 0.965 | 0.938 | 0.988 | 1.07 | 0.783 | 0.636 | 0.663 | 0.677 | 0.862 | 0.756 | 0.68 | 0.725 | 0.695 | 0.746
10 | HCC-15 | 0.707 | 0.621 | 0.692 | 0.662 | 0.781 | 0.826 | 0.71 | 0.781 | 0.757 | 0.947 | 0.707 | 0.705 | 0.691 | 0.737 | 0.784 | 0.632 | 0.656 | 0.614 | – | 0.604
11 | ABC-1 | 0.988 | 0.899 | – | 0.889 | 0.779 | 1.24 | 0.905 | 1.01 | 0.956 | 0.992 | 0.55 | 0.459 | 0.583 | 0.517 | 0.52 | 0.528 | 0.516 | 0.582 | 0.531 | 0.441
12 | LCLC-103H | 0.753 | 0.746 | 0.766 | 0.644 | 0.701 | 0.936 | 1.03 | 1.02 | 0.991 | 1.17 | 0.529 | 0.466 | 0.467 | 0.496 | 0.512 | 0.458 | 0.487 | 0.473 | 0.428 | 0.457
13 | NCI-H441 | 0.215 | 0.255 | 0.298 | 0.267 | 0.272 | 0.715 | 0.774 | 0.608 | 0.889 | 0.945 | 0.601 | 0.634 | 0.707 | 0.665 | 0.677 | 0.617 | 0.647 | 0.538 | 0.675 | 0.579
14 | EPLC-272H | 0.374 | 0.346 | 0.369 | 0.354 | 0.352 | 0.821 | 0.863 | 0.904 | 0.773 | 1.1 | 0.275 | 0.225 | 0.312 | 0.314 | 0.308 | 0.26 | 0.282 | 0.268 | 0.273 | 0.257
